# Test results as given in patent US20130303486A1, “Compositions Comprising Zoledronic Acid or Related Compounds for Relieving Pain Associated with Arthritis” (priority 2012, published 2013).
# Where two headings read alike, the source gives them in different places.
# Tests used:
# [1] = tested on: complex regional pain syndrome (CRPS), fracture hindpaw; experiment: rat tibia fracture model of complex regional pain syndrome (CRPS): von Frey, weight bearing, edema, warmth; assay type: in vivo; conditions: oral 18 mg/m^2/day (3 mg/kg/day) for 28 days
# Experimental: The effect of orally administered zoledronic acid was examined in the rat tibia fracture model of complex regional pain syndrome (CRPS). CRPS was induced in the rats by fracturing the right distal tibias of the animals and casting the fractured hindpaws for 4 weeks, as described in Guo T Z et al. (Pain. 2004; 108:95-107).
# Animals were orally administered either vehicle (control) or zoledronic acid, in a dosage of 18 mg/m^2/day (3 mg/kg/day) for 28 days, starting on the day of fracture and casting. Drug was dissolved in distilled water and administered by gavage. Animals were fasted for 4 hours before and 2 hours after dosing. At the end of the 28-day period, casts were removed, and on the following day, the rats were tested for hindpaw pain, edema, and warmth.
# Pain was assessed by measuring hyperalgesia, and weight bearing. […]
# An incapacitance device (IITC Inc. Life Science, Woodland, Calif., USA) was used to measure hindpaw weight bearing, a postural effect of pain. […] Eight readings (excluding the highest and lowest ones) were averaged to calculate the bilateral hindpaw weight-bearing values. Weight bearing data were analyzed as the ratio between right (fracture) and left hindpaw weight bearing values ((2R/(R+L))×100%). […]
# The temperature of the hindpaw was measured using a fine wire thermocouple (Omega, Stanford, Conn., USA) applied to the paw skin. […]
# [2] = tested on: inflammatory pain (mechanical hyperalgesia), CFA-injected hind paw; assay type: in vivo, Sprague-Dawley rats
# Experimental: The effect of orally administered zoledronic acid on inflammatory pain was examined using the rat complete Freund's adjuvant (CFA) model. Inflammatory pain was induced by injection of 100% CFA in a 75 μL volume into the left hind paws of Sprague-Dawley rats on day 0, followed by assessments on days 1-3. Animals were orally administered vehicle (control), zoledronic acid 18 mg/m^2 (or 3 mg/kg), zoledronic acid 120 mg/m^2 (or 20 mg/kg), or zoledronic acid 900 mg/m^2 (or 150 mg/kg) daily on days 1-3. Drug was dissolved in distilled water and prepared fresh daily. Animals were fasted prior to dosing. Under current FDA guidelines for extrapolating starting dosages from animals to humans, dosages expressed in mg/m^2 are considered equivalent between mammalian species. Thus, for example, 18 mg/m^2 in a rat is considered equivalent to 18 mg/m^2 in a human being, while 3 mg/kg in a rat may not be equivalent to 3 mg/kg in a human being.
# Values for inflammatory pain (mechanical hyperalgesia) in the vehicle and drug-treated animals were obtained on day 0 prior to CFA injection, and at baseline and post-treatment on days 1-3. Pain was assessed using a digital Randall-Selitto device (dRS; IITC Life Sciences, Woodland Hills, Calif.). Animals were placed in a restraint sling that suspended the animal, leaving the hind limbs available for testing. Paw compression threshold was measured by applying increasing pressure to the plantar surface of the hind paw with a dome-shaped tip placed between the 3rd and 4th metatarsus. Pressure was applied gradually over approximately 10 seconds. Measurements were taken from the first observed nocifensive behavior of vocalization, struggle or withdrawal. A cut-off value of 300 g was used to prevent injury to the animal.
# Reversal of inflammatory pain was calculated according to the formula:
# % reversal=(Post-treatment−Post-CFA baseline)/(Pre-CFA baseline−Post-CFA baseline)×100.
# The experiment was carried out using 9-10 animals per group.
smiles,measurement,setting,value
O=P(O)(O)C(O)(Cn1ccnc1)P(=O)(O)O [zoledronic acid],reversal of fracture induced pain (von Frey pain threshold) as compared to vehicle,[1],77%
same,paw compression thresholds compared to vehicle,"[2]; oral 18 mg/m^2, entire measurement period after 30 minutes from start of treatment",higher than for vehicle
same,paw compression thresholds compared to vehicle,"[2]; oral 120 mg/m^2 (20 mg/kg) daily days 1-3, all time points",approximately equal or inferior to vehicle
same,toxicity,"[2]; oral 900 mg/m^2 (150 mg/kg) daily days 1-3, all animals euthanized two days after cessation of dosing",significant toxicity
same,paw compression thresholds compared to vehicle,"[2]; oral 900 mg/m^2, day three",greater than for vehicle
same,paw compression thresholds compared to vehicle,"[2]; oral 900 mg/m^2, first two days of dosing",lower than vehicle
